Literature values, collected in patent publication US20090306403A1, “Production Process for Bicyclic Tetrahydropyrrole Compounds” (priority 2006, published 2009).

Key:
sigma (σ-2) site = sigma (σ-2) site (Homo sapiens, UniProt Q5BJF2); details: background statement in words
sigma 1 (σ-1) site = sigma 1 (σ-1) site (Homo sapiens, UniProt Q99720); details: background statement in words
Sequence of sigma 1 (σ-1) site (Q99720 whole entry): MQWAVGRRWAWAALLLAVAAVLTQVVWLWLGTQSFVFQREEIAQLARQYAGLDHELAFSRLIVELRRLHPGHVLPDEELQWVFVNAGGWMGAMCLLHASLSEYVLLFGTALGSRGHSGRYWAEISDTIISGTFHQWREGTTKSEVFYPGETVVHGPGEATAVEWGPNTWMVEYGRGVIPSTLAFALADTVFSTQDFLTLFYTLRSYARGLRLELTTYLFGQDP

Sequence of sigma (σ-2) site (Q5BJF2 whole entry): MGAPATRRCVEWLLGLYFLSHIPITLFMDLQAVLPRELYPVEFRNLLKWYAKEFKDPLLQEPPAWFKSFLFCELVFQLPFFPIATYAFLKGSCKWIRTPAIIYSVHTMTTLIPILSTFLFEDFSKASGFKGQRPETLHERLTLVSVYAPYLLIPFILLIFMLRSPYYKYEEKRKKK

Substance: SKF 10047
- affinity for the sigma (σ-2) site (sigma (σ-2) site): micromolar affinity
- affinity for the sigma 1 (σ-1) site (sigma 1 (σ-1) site): nanomolar affinity
